The results in this text go back to US7704995B2 (Exelixis, Inc., priority 2003, dated 2010).

The target of this experiment is T1, Chk1 (Homo sapiens, UniProt O14757).
T1 construct: purchased Upstate Biotechnology
T1 sequence (O14757 1-476): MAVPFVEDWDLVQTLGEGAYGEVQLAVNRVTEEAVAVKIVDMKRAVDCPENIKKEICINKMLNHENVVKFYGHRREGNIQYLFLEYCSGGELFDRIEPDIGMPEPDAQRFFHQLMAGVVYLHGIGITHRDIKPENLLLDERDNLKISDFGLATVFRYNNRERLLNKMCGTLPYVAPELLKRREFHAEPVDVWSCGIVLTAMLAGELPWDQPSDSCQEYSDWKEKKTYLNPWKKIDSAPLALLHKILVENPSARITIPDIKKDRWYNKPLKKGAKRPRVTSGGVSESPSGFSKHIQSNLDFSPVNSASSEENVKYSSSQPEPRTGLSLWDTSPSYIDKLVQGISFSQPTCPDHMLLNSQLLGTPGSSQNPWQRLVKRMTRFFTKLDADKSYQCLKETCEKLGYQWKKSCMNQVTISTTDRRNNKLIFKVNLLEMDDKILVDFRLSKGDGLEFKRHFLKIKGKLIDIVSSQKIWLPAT
The experiment in a line: Chk1 kinase assay: incorporation of γ-33P ATP into immobilized myelin basic protein. The format is biochemical. Particulars: read-out: Chk1 IC50. Put shortly: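 Incorporation of γ-33P into myelin basic protein coated on plates was scintillation-counted after 1 h at room temperature, duplicate points. Unlabeled ATP was 10 μM with 10 nM Chk1, 30 μM with 20 nM Chk2; buffer Hepes pH 7.6, MgCl2, DTT, 1% DMSO. Output IC50, optionally converted to Ki.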

Consider `CNC(=O)c1nc(-c2cccc(CNC(=O)c3ccc(-c4ccccc4)cc3)c2)cnc1N` [Example 332, 3-amino-6-(3-{[(biphenyl-4-ylcarbonyl)amino]methyl}phenyl)-N-methylpyrazine-2-carboxamide], for which the IC50 is below 50 nM.

Turning to `CNC(=O)c1nc(-c2cccc(CNC(=O)c3cc(C(F)(F)F)ccc3Cl)c2)cnc1N` [Example 333, 3-amino-6-{3-[({[2-chloro-5-(trifluoromethyl)phenyl]carbonyl}amino)methyl]phenyl}-N-methylpyrazine-2-carboxamide], the IC50 was in the range of 50 to 1000 nM. Take `CNC(=O)c1nc(-c2cccc(CNC(=O)c3cc4ccccc4[nH]3)c2)cnc1N` [Example 334, N-[(3-{5-amino-6-[(methylamino)carbonyl]pyrazin-2-yl}phenyl)methyl]-1H-indole-2-carboxamide]: the IC50 lay in the range of 50 to 1000 nM. Next, `CNC(=O)c1nc(-c2cccc(CNC(=O)c3ncccc3O)c2)cnc1N` [Example 335, 3-amino-6-[3-({[(3-hydroxypyridin-2-yl)carbonyl]amino}methyl)phenyl]-N-methylpyrazine-2-carboxamide]: 50 to 1000 nM; `CNC(=O)c1nc(-c2cccc(CNC(=O)Cc3c[nH]c4ccccc34)c2)cnc1N` [Example 336, 3-amino-6-(3-{[(1H-indol-3-ylacetyl)amino]methyl}phenyl)-N-methylpyrazine-2-carboxamide]: 50 to 1000 nM. Next, `CNC(=O)c1nc(-c2cccc(C(=O)NCc3cc(F)ccc3F)c2)cnc1N` [Example 337, 3-amino-6-[3-({[(2,5-difluorophenyl)methyl]amino}carbonyl)phenyl]-N-methylpyrazine-2-carboxamide]: 50 to 1000 nM; `CNC(=O)c1nc(-c2cccc(C(=O)NCc3c(F)cccc3F)c2)cnc1N` [Example 338, 3-amino-6-[3-({[(2,6-difluorophenyl)methyl]amino}carbonyl)phenyl]-N-methylpyrazine-2-carboxamide]: 50 to 1000 nM.

Regarding `CNC(=O)c1nc(-c2cccc(C(=O)NCc3cc(F)cc(F)c3)c2)cnc1N` [Example 339, 3-amino-6-[3-({[(3,5-difluorophenyl)methyl]amino}carbonyl)phenyl]-N-methylpyrazine-2-carboxamide], the half-maximal inhibitory concentration (IC50) is below 50 nM. `CNC(=O)c1nc(-c2cccc(C(=O)NCc3cccc(I)c3)c2)cnc1N` [Example 340, 3-amino-6-[3-({[(3-iodophenyl)methyl]amino}carbonyl)phenyl]-N-methylpyrazine-2-carboxamide]: the IC50 was below 50 nM. For the compound `CNC(=O)c1nc(-c2cccc(C(=O)NCc3ccccc3N3CCOCC3)c2)cnc1N` [Example 341, 3-amino-N-methyl-6-[3-({[(2-morpholin-4-ylphenyl)methyl]amino}carbonyl)phenyl]pyrazine-2-carboxamide], the concentration for half-maximal inhibition (IC50) is 50 to 1000 nM. In the case of `CNC(=O)c1nc(-c2cccc(C(=O)NCc3cccc(OCCN4CCOCC4)c3)c2)cnc1N` [Example 342, 3-amino-N-methyl-6-(3-{[({3-[(2-morpholin-4-ylethyl)oxy]phenyl}methyl)amino]carbonyl}phenyl)pyrazine-2-carboxamide], the half-maximal inhibitory concentration (IC50) lay within 50 to 1000 nM. On to `CNC(=O)c1nc(-c2cccc(C(=O)NCc3ccc(N4CCOCC4)cc3)c2)cnc1N` [Example 343], for which the IC50 lay in the range of 50 to 1000 nM.

As to `CNC(=O)c1nc(-c2cccc(C(=O)NCc3cccc(N4CCOCC4)c3)c2)cnc1N` [Example 344, 3-amino-N-methyl-6-[3-({[(3-morpholin-4-ylphenyl)methyl]amino}carbonyl)phenyl]pyrazine-2-carboxamide], the IC50 was in the range of 1000 to 10000 nM.

As for `CNC(=O)c1nc(-c2cccc(C(=O)NCc3ccc(C(C)C)cc3)c2)cnc1N` [Example 345, 3-amino-N-methyl-6-{3-[({[4-(1-methylethyl)phenyl]methyl}amino)carbonyl]phenyl}pyrazine-2-carboxamide], the IC50 is 50 to 1000 nM. Regarding `CNC(=O)c1nc(-c2cccc(CNC(=O)COc3ccc(C(C)C)cc3)c2)cnc1N` [Example 346, 3-amino-N-methyl-6-(3-{[({[4-(1-methylethyl)phenyl]oxy}acetyl)amino]methyl}phenyl)pyrazine-2-carboxamide], the half-inhibitory concentration (IC50) fell in the range of 50 to 1000 nM.

On to `CNC(=O)c1nc(-c2cccc(CNC(=O)CSc3ccc(N)cc3)c2)cnc1N` [Example 347, 3-amino-6-{3-[({[(4-aminophenyl)thio]acetyl}amino)methyl]phenyl}-N-methylpyrazine-2-carboxamide], for which the IC50 lay in the range of 50 to 1000 nM. In the case of `CNC(=O)c1nc(-c2ccc(OC)c(C(=O)NCc3ccccc3)c2)cnc1N` [Example 348, 3-amino-N-methyl-6-(4-(methyloxy)-3-{[(phenylmethyl)amino]carbonyl}phenyl)pyrazine-2-carboxamide], the concentration for half-maximal inhibition (IC50) is 50 to 1000 nM. The value for `CNC(=O)c1nc(-c2cncc(C(=O)NCc3ccccc3)c2)cnc1N` [Example 349, 3-amino-N-methyl-6-(5-{[(phenylmethyl)amino]carbonyl}pyridin-3-yl)pyrazine-2-carboxamide] was 50 to 1000 nM; that for `CNC(=O)c1nc(-c2cccc(CNC(=O)c3ccc(I)cc3)c2)cnc1N` [Example 350, 3-amino-6-[3-({[(4-iodophenyl)carbonyl]amino}methyl)phenyl]-N-methylpyrazine-2-carboxamide] was below 50 nM; that for `CCCCCc1ccc(C(=O)NCc2cccc(-c3cnc(N)c(C(=O)NC)n3)c2)cc1` [Example 351, 3-amino-N-methyl-6-[3-({[(4-pentylphenyl)carbonyl]amino}methyl)phenyl]pyrazine-2-carboxamide] was 50 to 1000 nM. In the case of `CNC(=O)c1nc(-c2cccc(CNC(=O)c3ccc4c(c3)OCO4)c2)cnc1N` [Example 352, 3-amino-6-(3-{[(1,3-benzodioxol-5-ylcarbonyl)amino]methyl}phenyl)-N-methylpyrazine-2-carboxamide], the IC50 fell in the range of 50 to 1000 nM. Consider `CNC(=O)c1nc(-c2cccc(CNC(=O)C3CCN(c4ncc(C(F)(F)F)cn4)CC3)c2)cnc1N` [Example 354, 3-amino-N-methyl-6-(3-{[({1-[5-(trifluoromethyl)pyrimidin-2-yl]piperidin-4-yl}carbonyl)amino]methyl}phenyl)pyrazine-2-carboxamide], for which the IC50 was 50 to 1000 nM. Take `CNC(=O)c1nc(-c2cccc(C(=O)NCc3ccccc3N3CCCCC3)c2)cnc1N` [Example 355, 3-amino-N-methyl-6-[3-({[(2-piperidin-1-ylphenyl)methyl]amino}carbonyl)phenyl]pyrazine-2-carboxamide]: the IC50 was in the range of 50 to 1000 nM. Take `CNC(=O)c1nc(-c2cccc(C(=O)NCc3ccccc3SC)c2)cnc1N` [Example 356, 3-amino-N-methyl-6-{3-[({[2-(methylthio)phenyl]methyl}amino)carbonyl]phenyl}pyrazine-2-carboxamide]: the 50% inhibitory concentration (IC50) was below 50 nM. As to `CNC(=O)c1nc(-c2cccc(C(=O)N[C@@H]3CCN(C(=O)OC(C)(C)C)C3)c2)cnc1N` [Example 357, 1,1-dimethylethyl (3R)-3-{[(3-{5-amino-6-[(methylamino)carbonyl]pyrazin-2-yl}phenyl)carbonyl]amino}pyrrolidine-1-carboxylate], the IC50 was in the range of 1000 to 10000 nM. As to `CNC(=O)c1nc(-c2cccc(C(=O)N[C@@H]3CCNC3)c2)cnc1N` [Example 358, 3-amino-N-methyl-6-(3-{[(3R)-pyrrolidin-3-ylamino]carbonyl}phenyl)pyrazine-2-carboxamide], the concentration for half-maximal inhibition (IC50) lay within 1000 to 10000 nM. As to `CNC(=O)c1nc(-c2cccc(C(=O)N[C@@H]3CCN(Cc4ccc(Cl)cc4)C3)c2)cnc1NCc1ccc(Cl)cc1` [Example 359, 3-{[(4-chlorophenyl)methyl]amino}-6-{3-[({(3R)-1-[(4-chlorophenyl)methyl]pyrrolidin-3-yl}amino)carbonyl]phenyl}-N-methylpyrazine-2-carboxamide], the concentration for half-maximal inhibition (IC50) was in the range of 50 to 1000 nM. For the compound `CNC(=O)c1nc(-c2cccc(C(=O)N[C@@H]3CCN(Cc4ccc(Cl)cc4Cl)C3)c2)cnc1N` [Example 360, 3-amino-6-{3-[({(3R)-1-[(2,4-dichlorophenyl)methyl]pyrrolidin-3-yl}amino)carbonyl]phenyl}-N-methylpyrazine-2-carboxamide], the IC50 fell in the range of 50 to 1000 nM. For the compound `CNC(=O)c1nc(-c2cccc(C(=O)N[C@@H]3CCN(Cc4cccc(OC)c4)C3)c2)cnc1NCc1cccc(OC)c1` [Example 361, N-methyl-3-({[3-(methyloxy)phenyl]methyl}amino)-6-(3-{[((3R)-1-{[3-(methyloxy)phenyl]methyl}pyrrolidin-3-yl)amino]carbonyl}phenyl)pyrazine-2-carboxamide], the IC50 lay within 50 to 1000 nM.

As to `CNC(=O)c1nc(-c2cccc(C(=O)N[C@@H]3CCN(Cc4c(Cl)cccc4Cl)C3)c2)cnc1N` [Example 362, 3-amino-6-{3-[({(3R)-1-[(2,6-dichlorophenyl)methyl]pyrrolidin-3-yl}amino)carbonyl]phenyl}-N-methylpyrazine-2-carboxamide], the half-maximal inhibitory concentration (IC50) is 50 to 1000 nM. Regarding `CNC(=O)c1nc(-c2cccc(C(=O)N[C@@H]3CCN(Cc4ccccc4)C3)c2)cnc1NCc1ccccc1` [Example 363, N-methyl-3-[(phenylmethyl)amino]-6-[3-({[(3R)-1-(phenylmethyl)pyrrolidin-3-yl]amino}carbonyl)phenyl]pyrazine-2-carboxamide], the IC50 is 50 to 1000 nM.
